Source: patent US20130040908A1, “SUBSTITUTION DERIVATIVES OF N6-BENZYLADENOSINE-5' -MONOPHOSPHATE, METHODS OF PREPARATION THEREOF, USE THEREOF AS MEDICAMENTS, AND THERAPEUTIC PREPARATIONS CONTAINING THESE COMPOUNDS” (BIOAPEX, S.R.O., priority 2010, published 2013)

Key:
[1] = test system: K-562 (human erythroleukemia); assay: Calcein AM cytotoxicity assay, K-562; format: cell-based; details: K-562, 72 hours
Excerpt: (§1) Because toxic compounds negatively influence metabolic processes in cells, many standard cytotoxicity assays are based on measurement of metabolisation rate of various artificial substrates. Resulting product is then quantified e.g. by means of spectrometry. The assays can be easily modified for use in 96-well plates. For evaluation of cytotoxic effect of the novel substituted 9-substituted cytokinin derivatives of this invention, a microtiter assay based on quantification of metabolisation of Calcein AM was used. The assay is widely used in drug screening programs and in chemosensitivity testing. In the living cells, Calcein AM is enzymatically hydrolysed and accumulation of resulting calcein is manifested by green fluorescence.
(§2) Normal human fibroblasts BJ were used as a control for routine screening of the compounds. The cells were kept in Nunc/Corning 80 cm^2 plastic bottles and grown in cell culture medium (DMEM containing 5 g/l glucose, 2 mM glutamine, 100 U/ml penicillin, 100 μg/ml streptomycine, 10% fetal bovine serum and sodium hydrogencarbonate), the compounds were prepared according to the procedure of the present invention.
(§3) The cell suspensions were prepared and diluted according to the particular cell type and the expected target cell density (2.500-30.000 cells per well based on cell growth characteristics) and pippetted (80 μl) into 96-well plates. […] Tested compound was added in total volume of 20 μl of water at time zero. Usually, test compound was evaluated at six 3-fold dilutions. […] All drug concentrations were tested in triplicates. […] At the end of incubation period Calcein AM in PBS was added into final concentration of 1 μg/ml. After another 1 hour of incubation fluorescence (FD) was measured with the Labsystem FIA Reader Fluoroscan Ascent (UK). Growth inhibition (GI) was estimated using the following equitation: GI=(mean FDdrug exposed wells−mean FDblank)/(mean FDcontrol wells−mean FDblank)×100%.

[2] = test system: HL-60 (promyelocytic leukemia); assay: Calcein AM cytotoxicity assay, HL60; format: cell-based, human; details: HL60, 72 hours
Excerpt: as §1, §2, §3

[3] = test system: CEM (T-lymphoblastoid leukemia); assay: Calcein AM cytotoxicity assay, CEM; format: cell-based; details: 72 hours
Excerpt: as §1, §2, §3

[4] = test system: Human lymphocytes; assay: Immunosuppressive activity, 3H-thymidine incorporation in concanavalin A activated lymphocytes; format: cell-based; details: 72 hours, [3H]-TdR
Excerpt: One of the most important parameters of specific cellular immunity is the proliferative response of lymphocytes to antigens or polyclonal mitogens. The majority of normal mammalian peripheral lymphocytes comprise resting cells. Antigens or nonspecific polyclonal mitogens have the capacity to activate lymphoid cells and this is accompanied by dramatic changes of intracellular metabolism (mitochondrial activity, protein synthesis, nucleic acids synthesis, formation of blastic cells and cellular proliferation). […] Variety of in vitro assays was developed to measure proliferative response of lymphocytes. The most commonly used is ^3H-thymidine incorporation method.
During cell proliferation, DNA has to be replicated before the cell is divided into two daughter cells. This close association between cell doublings and DNA synthesis is very attractive for assessing cell proliferation. If labelled DNA precursors are added to the cell culture, cells that are about to divide incorporate the labelled nucleotide into their DNA. Traditionally, those assays usually involve the use of radiolabelled nucleosides, particularly tritiated thymidine ([^3H]-TdR). The amount of [^3H]-TdR incorporated into the cellular DNA is quantified by liquid scintillation counting. Human heparinized peripheral blood was obtained from healthy volunteers by cubital vein punction. The blood was diluted in PBS (1:3) and mononuclear cells were separated by centrifugation in Ficoll-Hypaque density gradient (Pharmacia, 1.077 g/ml) at 2200 rpm for 30 minutes. Following centrifugation, lymphocytes were washed in PBS and resuspended in cell culture medium (RMPI 1640, 2 mM glutamine, 100 U/ml penicillin, 100 μg/ml streptomycin, 10% fetal calf serum and sodium bicarbonate).
The cells were diluted at target density of 1.100.000 cells/ml and were added by pipette (180 μl) into 96-well microtiter plates. Four-fold dilutions of the intended test concentration were added at time zero in 20 μl aliquots to the microtiter plate wells. Usually, test compound was evaluated at six 4-fold dilutions. In routine testing, the highest well concentration was 266.7 μM. All drug concentrations were examined in duplicates. All wells with exception of unstimulated controls were activated with 50 of concanavalin A (25 μg/ml). Incubations of cells with test compounds lasted for 72 hours at 37° C., in 5% CO2 atmosphere and 100% humidity. At the end of incubation period, the cells were assayed by using the [^3H]-TdR:
Cell cultures were incubated with 0.5 μCi (20 μl of stock solution 500 μCi/ml per well for 6 hours at 37° C. and 5% CO2. The automated cell harvester was used to lyse cells in water and adsorb the DNA onto glass-fiber filters in the format of microtiter plate. The DNA incorporated [^3H]-TdR was retained on the filter while unincorporated material passes through. The filters were dried at room temperature overnight, sealed into a sample bag with 10-12 ml of scintillant. The amount of [^3H]-TdR present in each filter (in cpm) was determined by scintillation counting in a Betaplate liquid scintillation counter. The effective dose of immunosuppressant (ED) was calculated using the following equation: ED=(CCPMdrug exposed well/mean CCPMcontrol wells)×100%. The ED50 value, the drug concentration inhibiting proliferation of 50% of lymphocytes, was calculated from the obtained dose response curves.

[5] = test system: MCF-7 (breast carcinoma); assay: Calcein AM cytotoxicity assay, MCF7; format: cell-based; details: MCF7, 72 hours
Excerpt: as §1, §2, §3

SMILES | GI50 [1] [µM] | GI50 [2] [µM] | GI50 [3] [µM] | Human lymphocytes ED50 [4] [µM] | GI50 [5] [µM]
O=P(O)(O)OC[C@H]1O[C@@H](n2cnc3c(NCc4ccc(F)cc4F)ncnc32)[C@H](O)[C@@H]1O [Compound 36, 6-(2,4-difluorobenzylamino)purine riboside-5′-monophosphate] | 5.9 | 2.8 | 4.9 |  | 
O=P(O)(O)OC[C@H]1O[C@@H](n2cnc3c(NCc4cccc(Br)c4)ncnc32)[C@H](O)[C@@H]1O [Compound 8, 6-(3-bromoobenzylamino)purine riboside-5′-monophosphate] | 19.1 | 4.2 | 5.1 |  | 
O=P(O)(O)OC[C@H]1O[C@@H](n2cnc3c(NCc4ccc(O)cc4)ncnc32)[C@H](O)[C@@H]1O [Compound 23, 6-(4-hydroxybenzylamino)purine riboside-5′-monophosphate] |  | 9.7 | 19.4 |  | 
O=P(O)(O)OC[C@H]1O[C@@H](n2cnc3c(NCc4cccc(Cl)c4O)ncnc32)[C@H](O)[C@@H]1O [2-hydroxy-3-chlorobenzylamino, 6-(2-hydroxy-3-chlorobenzylamino)purine riboside-5′-monophosphate] |  |  |  | 3.2 | 
O=P(O)(O)OC[C@H]1O[C@@H](n2cnc3c(NCc4ccc(O)c(O)c4)ncnc32)[C@H](O)[C@@H]1O [3,4-dihydroxybenzylamino, 6-(3,4-dihydroxybenzylamino)purine riboside-5′-monophosphate] |  |  |  | 9.4 | 
O=P(O)(O)OC[C@H]1O[C@@H](n2cnc3c(NCc4c(F)ccc(F)c4F)ncnc32)[C@H](O)[C@@H]1O [Compound 40, 6-(2,3,6-trifluorobenzylamino)purine riboside-5′-monophosphate] |  | 11.3 |  |  | 
O=P(O)(O)OC[C@H]1O[C@@H](n2cnc3c(NCc4ccccc4F)ncnc32)[C@H](O)[C@@H]1O [Compound 1, 6-(2-fluorobenzylamino)purine riboside-5′-monophosphate] | 31.7 | 3.3 | 3.9 | 6.3 | 
COc1cc(CNc2ncnc3c2ncn3[C@@H]2O[C@H](COP(=O)(O)O)[C@@H](O)[C@H]2O)cc(OC)c1 [Compound 34, 6-(3,5-dimethoxybenzylamino)purine riboside-5′-monophosphate] |  | 19.8 |  |  | 
O=P(O)(O)OC[C@H]1O[C@@H](n2cnc3c(NCc4cccc(Cl)c4)ncnc32)[C@H](O)[C@@H]1O [Compound 5, 6-(3-chlorobenzylamino)purine riboside-5′-monophosphate] | 23.4 | 0.5 | 1.5 | 3.2 | 
COc1cccc(CNc2ncnc3c2ncn3[C@@H]2O[C@H](COP(=O)(O)O)[C@@H](O)[C@H]2O)c1OC [Compound 31, 6-(2,3-dimethoxybenzylamino)purine riboside-5′-monophosphate] |  | 91 |  |  | 
O=P(O)(O)OC[C@H]1O[C@@H](n2cnc3c(NCc4ccc(Cl)cc4Cl)ncnc32)[C@H](O)[C@@H]1O [Compound 24] | 81.5 | 72.4 | 81.2 |  | 122
O=P(O)(O)OC[C@H]1O[C@@H](n2cnc3c(NCc4ccccc4Cl)ncnc32)[C@H](O)[C@@H]1O [Compound 4, 6-(2-chlorobenzylamino)purine riboside-5′-monophosphate] | 56 | 1.4 | 1.9 | 8.7 | 
O=P(O)(O)OC[C@H]1O[C@@H](n2cnc3c(NCc4ccccc4Br)ncnc32)[C@H](O)[C@@H]1O [Compound 7, 6-(2-bromobenzylamino)purine riboside-5′-monophosphate] | 9.7 | 5.9 | 2.3 |  | 45.6
COc1ccc(CNc2ncnc3c2ncn3[C@@H]2O[C@H](COP(=O)(O)O)[C@@H](O)[C@H]2O)c(OC)c1 [Compound 32, 6-(2,4-dimethoxybenzylamino)purine riboside-5′-monophosphate] |  | 41 |  |  | 
O=P(O)(O)OC[C@H]1O[C@@H](n2cnc3c(NCc4ccc(F)c(Cl)c4)ncnc32)[C@H](O)[C@@H]1O [Compound 41, 6-(3-chloro-4-fluorobenzylamino)purine riboside-5′-monophosphate] | 4.3 | 3.1 | 1.4 |  | 99.1
COc1ccc(CNc2ncnc3c2ncn3[C@@H]2O[C@H](COP(=O)(O)O)[C@@H](O)[C@H]2O)c(O)c1 [2-hydroxy-4-methoxybenzylamino, 6-(2-hydroxy-4-methoxybenzylamino)purine riboside-5′-monophosphate] |  |  |  | 2.1 | 
COc1cccc(CNc2ncnc3c2ncn3[C@@H]2O[C@H](COP(=O)(O)O)[C@@H](O)[C@H]2O)c1 [Compound 16, 6-(3-methoxybenzylamino)purine riboside-5′-monophosphate] | 122 | 5.1 | 4.6 |  | 48.1
O=P(O)(O)OC[C@H]1O[C@@H](n2cnc3c(NCc4ccc(F)cc4Cl)ncnc32)[C@H](O)[C@@H]1O [2-chloro-4-fluorobenzylamino, 6-(2-chloro-4-fluorobenzylamino)purine riboside-5′-monophosphate] | 9.6 | 7.9 | 12.7 |  | 
Cc1ccccc1CNc1ncnc2c1ncn2[C@@H]1O[C@H](COP(=O)(O)O)[C@@H](O)[C@H]1O [Compound 12, 6-(2-methylbenzylamino)purine riboside-5′-monophosphate] |  | 3.1 | 11.4 | 7.3 | 144
O=P(O)(O)OC[C@H]1O[C@@H](n2cnc3c(NCc4ccc(Cl)cc4)ncnc32)[C@H](O)[C@@H]1O [Compound 6, 6-(4-chlorobenzylamino)purine riboside-5′-monophosphate] | 12.6 |  | 4.9 | 3.3 | 
O=P(O)(O)OC[C@H]1O[C@@H](n2cnc3c(NCc4ccc(Br)cc4)ncnc32)[C@H](O)[C@@H]1O [Compound 9, 6-(4-bromobenzylamino)purine riboside-5′-monophosphate] | 49.9 | 41.3 | 17.6 |  | 
O=P(O)(O)OC[C@H]1O[C@@H](n2cnc3c(NCc4cc(F)cc(F)c4)ncnc32)[C@H](O)[C@@H]1O [Compound 37, 6-(3,5-difluorobenzylamino)purine riboside-5′-monophosphate] |  | 6.9 | 21.1 |  | 
O=P(O)(O)OC[C@H]1O[C@@H](n2cnc3c(NCc4ccc(F)c(F)c4F)ncnc32)[C@H](O)[C@@H]1O [Compound 38, 6-(2,3,4-trifluorobenzylamino)purine riboside-5′-monophosphate] |  | 11.3 | 58.6 |  | 
